Test system: IFN β-production
Conditions: soluble, unformulated form
Experimental: (FIG. 3A) Bioluminescence images of luciferase reporter mice (IFβ+/Δβ-luc); images taken 4, 24 and 48 h post footpad injection of IMDQ-PEG-CHOL, IMDQ-PEG and native IMDQ.
In vivo immune activation imaging. Luciferase reporter mice (IFNβ+/Δβ-luc) with a BALB/c background, aged 7-9 weeks, were housed in individual ventilated cages and given ad libitum access to food and water. 20 mL of IMDQ-PEG-CHOL, IMDQ-PEG or IMDQ were injected subcutaneously in the footpad (n=3) at an equivalent INDQ dose of 2 mg. For in vivo imaging at the given time points, mice were injected subcutaneously with 200 μL D-luciferin and in vivo luminescence imaging was recorded 12 min later using the IVIS Lumina II imaging system. Local (DLN and DLN+foot pad) luminescence and full-body luminescence were quantified using the Living Image 4.4 software.

CCCCc1nc2c(N)nc3ccccc3c2n1Cc1ccc(CN)cc1 [IMDQ, 1-(4-(aminomethyl)benzyl)-2-butyl-1H-imidazo[4,5-c]quinolin-4-amine]
entry into systemic circulation upon local administration: rapidly enters systemic circulation

Reference: US12552788B2 (priority 2020, dated 2026)
